In one assay the target is T1, PPO2 R128A ΔG210 (Amaranthus tuberculatus, UniProt Q0NZW9, DEL210/R128A).
T1 sequence (Q0NZW9 with tags, fused parts or gaps R128A/DEL210): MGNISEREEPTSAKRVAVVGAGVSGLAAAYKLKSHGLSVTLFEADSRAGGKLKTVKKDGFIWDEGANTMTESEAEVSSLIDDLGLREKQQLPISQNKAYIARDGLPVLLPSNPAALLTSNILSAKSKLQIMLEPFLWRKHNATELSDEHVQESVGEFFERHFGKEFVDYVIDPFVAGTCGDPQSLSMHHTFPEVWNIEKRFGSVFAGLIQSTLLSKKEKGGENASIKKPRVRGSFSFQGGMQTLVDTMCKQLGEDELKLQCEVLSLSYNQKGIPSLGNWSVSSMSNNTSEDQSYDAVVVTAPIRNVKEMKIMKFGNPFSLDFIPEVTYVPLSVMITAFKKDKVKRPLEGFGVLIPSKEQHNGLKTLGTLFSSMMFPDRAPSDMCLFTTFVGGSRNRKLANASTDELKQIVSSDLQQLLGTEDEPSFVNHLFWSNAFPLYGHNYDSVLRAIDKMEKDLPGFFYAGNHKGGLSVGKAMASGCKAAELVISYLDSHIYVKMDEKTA
The experiment in a line: biochemical. The format is biochemical.

Another assay addresses T2, PPO2 R128C ΔG210 (Amaranthus tuberculatus, UniProt Q0NZW9, DEL210/R128C).
T2 sequence (Q0NZW9 with tags, fused parts or gaps R128C/DEL210): T1 sequence (Q0NZW9 with tags, fused parts or gaps R128A/DEL210) with A98C
The experiment in a line: biochemical. The format is biochemical.

The target in a further assay is T3, PPO2 R128L ΔG210 (Amaranthus tuberculatus, UniProt Q0NZW9, DEL210-210/R128L).
T3 sequence (Q0NZW9 with tags, fused parts or gaps R128L/DEL210-210): T1 sequence (Q0NZW9 with tags, fused parts or gaps R128A/DEL210) with A98L
The experiment in a line: biochemical. The format is biochemical.

The target in another assay is T4, PPO2 R128Q ΔG210 (Amaranthus tuberculatus, UniProt Q0NZW9, DEL210-210/R128Q).
T4 sequence (Q0NZW9 with tags, fused parts or gaps R128Q/DEL210-210): T1 sequence (Q0NZW9 with tags, fused parts or gaps R128A/DEL210) with A98Q
The experiment in a line: biochemical. The format is biochemical.

In assay [1] the target is T5, PPO2 R128C ΔG210 in Escherichia coli hemG (Amaranthus tuberculatus, UniProt Q0NZW9, DEL210/R128C, cells depend on it).
T5 sequence (Q0NZW9 with tags, fused parts or gaps R128C/DEL210): T1 sequence (Q0NZW9 with tags, fused parts or gaps R128A/DEL210) with A98C
Type of assay: cell-based. To be noted: read-out: IC50 (E. coli hemG growth).

Assay [2] has as its target T6, PPO2 R128L ΔG210 in Escherichia coli hemG (Amaranthus tuberculatus, UniProt Q0NZW9, DEL210-210/R128L, cells depend on it).
T6 sequence (Q0NZW9 with tags, fused parts or gaps R128L/DEL210-210): T1 sequence (Q0NZW9 with tags, fused parts or gaps R128A/DEL210) with A98L
Type of assay: cell-based. The following applies: read-out: IC50 (E. coli hemG growth).

Assay [3] has as its target T7, PPO2 R128Q ΔG210 in Escherichia coli hemG (Amaranthus tuberculatus, UniProt Q0NZW9, DEL210-210/R128Q, cells depend on it).
T7 sequence (Q0NZW9 with tags, fused parts or gaps R128Q/DEL210-210): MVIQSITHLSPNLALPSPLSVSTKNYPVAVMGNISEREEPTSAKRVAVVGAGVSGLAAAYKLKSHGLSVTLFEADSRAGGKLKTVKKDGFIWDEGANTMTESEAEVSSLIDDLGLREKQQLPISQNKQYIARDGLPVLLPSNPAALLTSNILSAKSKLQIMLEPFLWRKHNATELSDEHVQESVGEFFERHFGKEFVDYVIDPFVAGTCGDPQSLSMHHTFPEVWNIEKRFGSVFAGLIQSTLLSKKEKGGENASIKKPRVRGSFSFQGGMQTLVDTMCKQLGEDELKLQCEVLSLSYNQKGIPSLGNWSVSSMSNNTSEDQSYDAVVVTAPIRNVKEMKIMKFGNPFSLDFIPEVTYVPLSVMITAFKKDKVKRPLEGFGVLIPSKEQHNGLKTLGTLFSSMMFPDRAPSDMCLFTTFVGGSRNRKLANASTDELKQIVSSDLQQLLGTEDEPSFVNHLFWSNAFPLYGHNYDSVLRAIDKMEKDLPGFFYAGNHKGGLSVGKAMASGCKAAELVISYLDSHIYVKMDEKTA
The format is cell-based. To be noted: read-out: IC50 (E. coli hemG growth).

In article PMC10092844, “Inhibition profile of trifludimoxazin towards PPO2 target site mutations” (Pest Management Science, 2022) one finds IC50 and Resistance factor data, which are given here for 4 compounds.

Residue numbers refer to the chain shown, from its start.

For the compound `C#CCN1C(=O)C(F)(F)Oc2cc(F)c(-n3c(=O)n(C)c(=S)n(C)c3=O)cc21` [Trifludimoxazin, trifludimoxazin], the IC50 against PPO2 R128A ΔG210 is 0.033 µM; at PPO2 R128C ΔG210, 31.1 nM; at PPO2 R128L ΔG210 it was 5.68 nM; against PPO2 R128Q ΔG210 it was 14.5 nM; in assay [1], 0.0465 µM; in assay [2] it was 0.0399 µM. Moreover, the IC50 in assay [3] was determined as 0.00986 µM. In addition, the Resistance factor at PPO2 R128A ΔG210 was found to be 135; at PPO2 R128C ΔG210 it was 127; on PPO2 R128L ΔG210, 23; on PPO2 R128Q ΔG210 it was 59.
Take `CCOC(=O)C(C)OC(=O)c1cc(Oc2ccc(C(F)(F)F)cc2Cl)ccc1[N+](=O)[O-]` (stereo not shown) [Lactofen, lactofen]: the IC50 at PPO2 R128C ΔG210 was 2150 nM; on PPO2 R128L ΔG210, 649 nM; on PPO2 R128Q ΔG210 it was 1750 nM; in assay [1] it was greater than 10 µM; in assay [2], greater than 10 µM; in assay [3] it was greater than 10 µM.
`CS(=O)(=O)NC(=O)c1cc(Oc2ccc(C(F)(F)F)cc2Cl)ccc1[N+](=O)[O-]` [Fomesafen, fomesafen]: the IC50 against PPO2 R128A ΔG210 is greater than 10 µM; at PPO2 R128C ΔG210, greater than 10000 nM; at PPO2 R128L ΔG210, greater than 10000 nM; against PPO2 R128Q ΔG210, greater than 10000 nM.
With `CC(C)N(C)S(=O)(=O)NC(=O)c1cc(-n2c(=O)cc(C(F)(F)F)n(C)c2=O)c(F)cc1Cl` [Saflufenacil, saflufenacil], the half-maximal inhibitory concentration (IC50) is greater than 10 µM against PPO2 R128A ΔG210; greater than 10000 nM on PPO2 R128C ΔG210; greater than 10000 nM against PPO2 R128L ΔG210; greater than 10000 nM at PPO2 R128Q ΔG210; greater than 10 µM in assay [1]; greater than 10 µM in assay [2]. The IC50 in assay [3] is greater than 10 µM.

Usually IC50 stands for the point on the concentration scale where inhibition reaches its midpoint.
